The values that follow are results of earlier work, collected in patent publication US20170368079A1, “ANTI-INFLAMMATORY AND ANTIDIABETIC AGENTS” (priority 2016, published 2017).

Like-named read-outs stand apart in the source and are kept apart here.

The test system of data set [1] is patients with type 2 diabetes.
The test system of data set [2] is glucocorticoid metabolism. The conditions noted are these: mice; pattern differs between liver and subcutaneous adipose tissue.
In data set [3] the test system is glucocorticoid metabolism. The following applies: humans; pattern differs between liver and subcutaneous adipose tissue.
For data set [4] the following is noted: compared with placebo, in contrast to aspirin.
For a further data set, the system named is platelet aggregation. The following applies: unlike aspirin.
The next data set deals with prostaglandin synthesis. The following applies: in vivo; compared with aspirin and indomethacin.

On to `O=C(Oc1ccccc1C(=O)O)c1ccccc1O` [salsalate, 2-(2-hydroxybenzoyl)oxybenzoic acid], for which, in data set [1], the C-reactive protein entry is listed as “lowers”, the HbA1c levels result is “lowers”, the adiponectin concentrations result was “increase” and the blood glucose result is “lowers”. Also, in data set [1], the circulating insulin entry is on record as “increase”, the free fatty acid result is reported as “lowers”, the glucose utilization result was “improve” and the triglycerides entry was “lowers”. Further, the glucocorticoid metabolism result in data set [2] was “alters glucocorticoid metabolism”. For the same compound, in data set [3], the glucocorticoid metabolism result was “alters glucocorticoid metabolism”. In addition, the “fecal gastrointestinal blood loss” value in data set [4] is reported as “no greater fecal gastrointestinal blood loss than placebo”. Further, the “inhibition of platelet aggregation” value in the data set on platelet aggregation was “does not inhibit platelet aggregation”. For the same compound, the anti-inflammatory activity entry in the data set with prostaglandin synthesis is “equivalent to aspirin and indomethacin”.
